The numbers were not newly measured in patent publication US7223553B2, “Immunoassays for everolimus” (priority 2004, dated 2007), which cites them from elsewhere.

Where two headings read alike, the source gives them in different places.

For data set [1] the following is noted: heart transplant patients, first year post-transplant.
For data set [2] the following is noted: kidney transplantation; consistent with efficacy while minimizing adverse effects.

For the substance “40-O-(2-hydroxyethyl)-rapamycin [Everolimus]”, the Everolimus trough levels was 5.2 ± 3.8 ng/mL in data set [1] (1.5 mg/day) and 9.4 ± 6.3 ng/mL in data set [1] (3 mg/day). Also, the Therapeutic concentration in data set [2] is 3 to 15 ng/mL.
